Key:
[1] = test system: PAIGB expression; test: RADE differential display of rat tibia RNA after PTH administration; type: in vivo; settings: eight days
Description: Total RNA was isolated and each RNA sample was then treated with 20 units of DNAse (Ambion, Austin, Tex.). After RNA cleaning, samples were split into three reverse transcription (RT) reactions. Each RT reaction contained 4 μg RNA, 1000 units SuperScript II RT (Gibco), 100 μM dNTPs and 0.2 μM anchor primer in a final volume of 100 μl. Anchor primers had the sequence (5′→3′) T11A, T11C, or T11G. For differential display each cDNA sample was subjected, in duplicate, to 80 PCR reactions using the appropriate anchor primer and one of 80 arbitrary primers (HAPs 1-80; Genhunter). PCR reactions contained in a final volume of 20 ul, 20 ng cDNA, 2 μM dNTPs, 0.2 μM anchor primer, 0.2 μM arbitrary primer, 1 unit Taq polymerase (Applied Biosystems (AB), Foster City, Calif.), and 2.5 μCi [α-^33P]dATP (2000 Ci/mmole). PCR conditions were as follows: 1 cycle of 92° C./2′, 40 cycles of [92° C./15″, 40° C./2′, 72° C./30″], and 1 cycle of 72° C./5′. PCR samples were then loaded onto a 50 cm 6% sequencing gel and run at 200 volts constant. Differentially expressed bands were excised from the dried gel. […]
Female Wister rats 4 weeks of age were treated with vehicle (saline) and human PTH (1-34) at a dose of 40 μg/kg of body weight for eight days. […] Three weeks post OVX total BMD was measured to determine if osteopenia was established. […]

[2] = test system: PAIGB expression; test: Real time PCR of PAIGB expression in rat tibia; type: in vivo
Description: RNA isolation was performed on bone as well as from different cell lines used during experimentation. RNA was isolated from rat tibiae as follows. Following euthanasia by CO2 asphyxiation tibiae were dissected free of soft tissue as rapidly as possible with autoclaved instruments, wiped with autoclaved gauze soaked in ethanol and the epiphysis broken off at the proximal growth plate by hand and discarded. The tibia was then cut transversely with bone cutters just distal to the proximal growth plate and just proximal to the distal tibia-fibula junction to expose the trabecular bone and the bone marrow. The trabecular bone and marrow cavity was flushed with ice cold sterile PBS using a Lancer liquid transfer pipette (Oxford Labware, St. Louis, Mo.) to remove the marrow and the cleaned bone placed in liquid nitrogen.
Applicants performed multiplex real time PCR (TaqMan) analysis on previously DNAsed samples using gene specific probe and primers and 18S ribosomal RNA probe and primer sets purchased from Applied Biosystem. (Foster City, Calif.) The samples were DNAsed according to the protocol provided by Ambion (DNA-free kit). TaqMan probe and primers for PAIGB was identify using Primer Express computer program. The sequence for rat PAIGB TaqMan probe was 6FAM-5′[…] (SEQ ID NO: 16) forward and reverse primers were 5′[…] 3′ (SEQ ID NO:17) and 5′ […] 3′ (SEQ ID NO:18) respectively. The final concentrations for probes were 500 nM and 40 nM for PAIGB and 18S ribosomal RNA or GAPDH respectively. The concentrations of the primers were 500 nM for PAIGB forward and reversed primers while 18S primers were 10 and 20 nM for forward and reversed primer respectively or 40 nM for GAPDH primers. Standards for rat samples were made from rat tibia or brain RNA in the range of 250 ng to 0.1 ng, while standards for mouse specific TaqMan were made from mouse brain RNA and human standards from human brain RNA (Clonetech, Palo Alto, Calif.) spanning the same range of concentration. Primers and probes for mouse PAIGB were: forward 5′ […] 3′ (SEQ ID NO:19), reverse, 5′ […] 3′ (SEQ ID NO:20) anti-sense and probe 5′ 6FAM-[…] (SEQ ID NO:21). Primers and probes for human PAIGB were: forward 5′ […] 3′ (SEQ ID NO:22), reverse 5′ […] 3′(SEQ ID NO:23), and PROBE 5′ 6FAM-[…] 3′(SEQ ID NO: 24). The Taq-man analysis was done using ABI 7700 Sequence Detector under following conditions: 30 min at 48° C., 10 min at 95° C. and 40 cycles of 15 sec at 95° C. and 60 sec at 60° C. Analysis of real-time PCR analysis was performed using (Sequence Detector, Macintosh) program.
The initial experiments measured the expression of PAIGB in the rat tibia after 8 days of treatment. In order to examine the time course of PTH action on PAIGB expression, experiments were performed on rats treated with intermittent PTH injections (40 μg/kg body weight) and tibias were collected for RNA isolation as well as evaluation in BMD changes. Time points of sample collection were 6 hours, 2 days, 4 days and 8 days after intermittent PTH treatment. Real time PCR analysis was performed on isolated RNA samples using above described primers.
The observed increase in PAIGB expression in bone treated with PTH is dose-dependent (FIG. 10B). OVX rats with established osteopenia were treated with increasing concentration of human PTH (1-34): 5, 10, 20, 40 and 80 μg/kg of body weight for 8 days with one daily injection. Six hours after last injection animals were scarified and bone samples were harvested for RNA isolation as described in Experimental Procedure section.

human PTH (1-34)
PAIGB expression in bone RNA (RADE) ([1]; continuous administration, 40 μg/kg/day): did not induce any changes | PAIGB expression in bone RNA (RADE) ([1]; intermittent injection, 40 μg/kg): induced | increase of PAIGB expression in bone ([2]; 40 μg/kg, one daily injection, 8 days, OVX rats): 10 fold | increase of PAIGB expression in bone ([2]; 80 μg/kg, one daily injection, 8 days, OVX rats): 20 fold | effect on PAIGB expression in bone ([2]; 5, 10 and 20 μg/kg, one daily injection, 8 days, OVX rats): did not have any effect | PAIGB expression over vehicle treated rats ([2]; 4 days of intermittent injection): 20 fold | effect on PAIGB expression in tibia ([2]; intermittent 40 μg/kg, days 4 and 8, compared with day 2): at the same magnitude | increase of PAIGB expression in tibia ([2]; intermittent 40 μg/kg, two days): ~20 fold

Reference: patent US7258999B2, “PTH responsive gene” (Wyeth, priority 2002, dated 2007)
